Source: US20230201301A1 (priority 2020, published 2023)

Tests used:
SARS-CoV-2 = format: in vivo, transgenic mice B6.Cg-Tg(K18-ACE2)2Prlmn/J
sTREM-1 = test system: sTREM-1; parameters: species or system transgenic mice B6.Cg-Tg(K18-ACE2)2Prlmn/J; conditions: mouse, in vivo, ip
cytokines/chemokines = test system: cytokines/chemokines; parameters: species or system transgenic mice B6.Cg-Tg(K18-ACE2)2Prlmn/J; conditions: mouse, in vivo

Sequence: LQEEDTGEYGCV (TLT-1 peptide) [LR12]
- bodyweight loss day 0 to day 10 (SARS-CoV-2; 2 mg i.p. at t0+1 h, 24, 48, 72, 96 h, vs vehicle, LOCF, FIG. 2-3): significant reduced bodyweight loss
- mortality (survival D0 to D10) (SARS-CoV-2; 2 mg i.p. at t0+1 h, 24, 48, 72, 96 h, vs vehicle, N=16 per treatment group, FIG. 1): significant reduction in mortality
- mean respiratory score (SARS-CoV-2; scale 0 (normal respiration) to 5 (dead mouse), up to day 10, 2 mg i.p., vehicle group 5, FIG. 5): 3
- mean clinical score (SARS-CoV-2; scale 1 (healthy mouse) to 5 (dead mouse), up to day 10, 2 mg i.p., vehicle group 5, FIG. 4): 3.5
- plasma sTREM-1 level (median) (sTREM-1): 132.3 pg/mL
- IP-10 plasma concentration vs vehicle (cytokines/chemokines): decrease
- IFNα plasma concentration vs vehicle (cytokines/chemokines; ip): decrease
- IL-6 plasma concentration vs vehicle (cytokines/chemokines; ip): decrease
- IL-10 plasma concentration vs vehicle (cytokines/chemokines; ip): increase
